The text below walks through data of ChEMBL document CHEMBL1153665, “Development of L-689,065 - the prototype of a new class of potent 5-lipoxygenase inhibitors” (Bioorg Med Chem Lett, 1992).

For series [1], the target named is T1, Arachidonate 5-lipoxygenase-activating protein (Homo sapiens, UniProt P20292).
T1 sequence (P20292 whole entry): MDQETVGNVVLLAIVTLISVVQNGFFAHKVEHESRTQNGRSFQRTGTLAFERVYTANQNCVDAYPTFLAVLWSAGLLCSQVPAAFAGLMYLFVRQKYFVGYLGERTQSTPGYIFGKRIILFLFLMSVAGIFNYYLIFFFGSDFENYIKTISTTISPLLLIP
Kind of series: Compound was tested for its binding activity towards 5-lipoxygenase activating protein (FLAP).

Series [2] addresses T2, Polyunsaturated fatty acid 5-lipoxygenase (Rattus norvegicus, UniProt P12527).
T2 sequence (P12527 whole entry): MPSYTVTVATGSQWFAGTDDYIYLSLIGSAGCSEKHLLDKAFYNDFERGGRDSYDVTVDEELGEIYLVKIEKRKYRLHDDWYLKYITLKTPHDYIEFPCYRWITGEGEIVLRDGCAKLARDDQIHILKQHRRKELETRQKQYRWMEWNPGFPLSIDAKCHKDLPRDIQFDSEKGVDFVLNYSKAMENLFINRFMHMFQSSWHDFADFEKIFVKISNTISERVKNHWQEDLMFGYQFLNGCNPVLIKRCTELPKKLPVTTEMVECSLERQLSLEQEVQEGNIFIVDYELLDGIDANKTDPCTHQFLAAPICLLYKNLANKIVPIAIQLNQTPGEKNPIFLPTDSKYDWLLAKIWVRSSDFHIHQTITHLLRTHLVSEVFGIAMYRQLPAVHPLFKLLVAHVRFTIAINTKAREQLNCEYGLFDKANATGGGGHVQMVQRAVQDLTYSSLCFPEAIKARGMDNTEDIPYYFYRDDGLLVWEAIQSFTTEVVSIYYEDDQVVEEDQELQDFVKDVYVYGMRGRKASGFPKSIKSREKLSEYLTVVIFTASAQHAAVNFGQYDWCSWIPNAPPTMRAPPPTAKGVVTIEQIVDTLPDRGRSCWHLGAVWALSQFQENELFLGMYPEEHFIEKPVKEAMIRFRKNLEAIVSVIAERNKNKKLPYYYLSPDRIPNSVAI
Kind of series: Compound was tested for its inhibitory activity against 5-lipoxygenase in rat.

Series [3] is described as follows: Maximum plasma concentration in rats when a oral dose of 200 mg/kg was given. The series is classed as ADME, organism-based. Set-up: dose 200 mg/kg, route oral. As to conditions: rat.
Series [4] relates to Rattus norvegicus. Kind of series: Time to reach maximum concentration following oral administration of 200 mg/kg in rat; value ranges from 2-4. Format: ADME, organism-based. Set-up: dose 200 mg/kg, route oral. To be noted: in vivo.
The test system of series [5] is Rattus norvegicus. In words: Compound was tested for inhibition of dyspnea at 0.5 mg/kg when administered perorally in rats. To be noted: route oral. Format: functional.

SMILES strings stand for the structures.

A word on the IC50: it is the midpoint of a concentration-inhibition curve. The low end stands for greater potency in that assay, the high end for weaker potency in that assay. `Cc1c(CC(C)(C)C(=O)O)n(Cc2ccc(Cl)cc2)c2ccc(OCc3ccc(-c4ccccc4)cn3)cc12`: the IC50 in series [1] amounted to 9.3 nM; in series [2] it was 700 nM.
For `CC(C)(C)Sc1c(CC(C)(C)C(=O)O)n(Cc2ccc(Cl)cc2)c2ccc(OCc3ccc4ccccc4n3)cc12` [QUIFLAPON], in that order: 2.3 nM and > 2000 nM.
`C=CCc1c(OCc2ccc3ccccc3n2)ccc2c1c(SC(C)(C)C)c(CC(C)(C)C(=O)O)n2Cc1ccc(Cl)cc1`: the values for the IC50 in series [1] and in series [2] were 27 nM and > 8000 nM, respectively.
What is called Cmax is the highest concentration seen after dosing. For orientation: inhibition in vivo means the relative decrease from the control value, in per cent. For `CC1Cc2c(OCc3ccc(-c4ccccc4)cn3)ccc3c2c(c(CC(C)(C)C(=O)O)n3Cc2ccc(Cl)cc2)S1` (racemic), the 50% inhibitory concentration (IC50) is 22000 nM in series [1] and 60 nM in series [2]. In series [3], the highest level (Cmax) was 5 µM. The same molecule returned a T max in series [4] of 2 h. This molecule also returned an inhibition in vivo at 0.5 mg/kg in series [5] of 55%.
`CC1Cc2c(OCc3ccc4ccccc4n3)ccc3c2c(c(CC(C)(C)C(=O)O)n3Cc2ccc(Cl)cc2)S1` (centres undefined): the concentration for half-maximal inhibition (IC50) was found to be 19 nM in series [1] and 300 nM in series [2].
Turning to `CC1Cc2c(OCc3ccc(-c4ccccc4)cn3)ccc3c2c(c(CC(C)(C)C(=O)O)n3Cc2ccc(Cl)cc2)S1` (single isomer, unassigned; (-)), the IC50 in series [1] was > 10000 nM; in series [2], 40 nM.
`CC1Cc2c(OCc3ccc(-c4ccccc4)cn3)ccc3c2c(c(CC(C)(C)C(=O)O)n3Cc2ccc(Cl)cc2)S1` (single isomer, unassigned; (+)): the results for the IC50 in series [1] and in series [2] were > 10000 nM and 150 nM, respectively.
For `Cc1c(CC(C)(C)C(=O)O)n(Cc2ccc(Cl)cc2)c2ccc(OCc3ccc4ccccc4n3)cc12`, in that order: 2.8 nM and > 5000 nM.
